Data from article PMC12195836, “From Ethnopharmacology to Active Compound: Effects of Traditional Plant Extracts on Varicose Vein-Related Enzymes and Isolation of Active Flavonoids from Helichrysum plicatum DC. subsp. plicatum” (Pharmaceuticals, 2025).
Where two headings read alike, the source gives them in different places.

Key:
[1] = tested on: LOX; set-up: method as in PMID 27316769; settings: dose-dependent; read-out: LOX inhibition IC50; cited from earlier work
[2] = target: xanthine oxidase (XO) (Homo sapiens, UniProt P47989); experiment: XO enzyme inhibition, spectrophotometric (uric acid formation at 295 nm); format: biochemical
xanthine oxidase (XO), sequence (P47989 whole entry, species assumed): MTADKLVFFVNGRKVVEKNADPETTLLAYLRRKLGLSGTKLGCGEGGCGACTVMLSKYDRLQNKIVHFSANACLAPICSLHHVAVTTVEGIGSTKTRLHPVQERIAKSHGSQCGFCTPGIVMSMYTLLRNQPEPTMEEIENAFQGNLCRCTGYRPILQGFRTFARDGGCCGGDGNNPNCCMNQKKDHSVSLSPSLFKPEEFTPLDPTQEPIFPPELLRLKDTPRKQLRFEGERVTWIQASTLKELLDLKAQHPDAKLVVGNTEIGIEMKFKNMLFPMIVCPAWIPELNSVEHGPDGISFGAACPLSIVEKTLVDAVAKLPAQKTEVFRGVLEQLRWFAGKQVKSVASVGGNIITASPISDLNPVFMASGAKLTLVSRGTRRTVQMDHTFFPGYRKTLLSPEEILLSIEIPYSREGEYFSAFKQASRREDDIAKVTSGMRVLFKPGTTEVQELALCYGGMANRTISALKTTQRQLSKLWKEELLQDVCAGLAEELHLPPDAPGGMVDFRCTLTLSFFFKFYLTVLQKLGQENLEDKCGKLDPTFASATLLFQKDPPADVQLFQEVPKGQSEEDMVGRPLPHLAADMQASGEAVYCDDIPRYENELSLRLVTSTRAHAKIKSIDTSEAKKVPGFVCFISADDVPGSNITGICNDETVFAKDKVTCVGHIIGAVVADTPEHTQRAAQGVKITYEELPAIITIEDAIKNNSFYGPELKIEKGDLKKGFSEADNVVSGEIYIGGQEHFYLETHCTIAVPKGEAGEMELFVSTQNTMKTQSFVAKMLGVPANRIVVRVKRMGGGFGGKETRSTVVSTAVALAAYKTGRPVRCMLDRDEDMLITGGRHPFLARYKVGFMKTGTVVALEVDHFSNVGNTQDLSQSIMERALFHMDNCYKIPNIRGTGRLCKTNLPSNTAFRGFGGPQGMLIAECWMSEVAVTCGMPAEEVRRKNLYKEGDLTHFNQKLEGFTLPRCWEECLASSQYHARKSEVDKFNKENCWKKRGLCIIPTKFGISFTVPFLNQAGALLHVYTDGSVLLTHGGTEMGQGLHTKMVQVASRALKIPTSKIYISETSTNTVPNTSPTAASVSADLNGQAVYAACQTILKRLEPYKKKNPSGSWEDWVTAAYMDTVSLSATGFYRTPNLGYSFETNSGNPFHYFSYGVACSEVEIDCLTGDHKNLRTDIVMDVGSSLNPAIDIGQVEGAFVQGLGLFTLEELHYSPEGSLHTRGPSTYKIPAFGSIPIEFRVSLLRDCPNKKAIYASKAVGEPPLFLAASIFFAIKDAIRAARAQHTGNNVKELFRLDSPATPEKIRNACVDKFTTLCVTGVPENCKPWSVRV
Procedure: (§1) All plant samples were macerated using 80% ethanol at room temperature for 5 days. Subsequently, filter paper was used to filter the samples, and the remaining filtrate was evaporated to dryness in a rotary evaporator (Büchi, Flawil, Switzerland). The extracts were weighed and dissolved in dimethyl sulfoxide (DMSO) to reach a concentration of 2 mg/mL, which was used in the in vitro experiments.
(§2) The enzyme inhibition assays conducted in this study included elastase, collagenase, hyaluronidase, XO, and prolyl POP inhibition and were performed using an ELISA microplate reader (Spectramax i3x microplate reader with Softmax® Pro Software for Windows 10; Molecular Devices, San Jose, USA).

[3] = tested on: XO; settings: cited from earlier work
[4] = target: POP enzyme; settings: cited from earlier work
[5] = Nitric oxide radical-scavenging activity
Procedure: as §1
The determination of the superoxide radical (O2^•−)-scavenging effect was conducted using the method described by Duh et al.. To assess the nitric oxide (NO)-scavenging effect, the method of Sreejayan and Rao was utilised with some modifications.

[6] = target: hyaluronidase; experiment: Hyaluronidase enzyme inhibition assay; format: biochemical
Procedure: as §1, §2

[7] = set-up: method as in earlier work; settings: cited from earlier work
[8] = target: collagenase; experiment: Collagenase inhibition, modified spectrophotometric method; format: biochemical
Procedure: as §1
The enzyme inhibition assays conducted in this study included elastase, collagenase, hyaluronidase, XO, and prolyl POP inhibition and were performed using an ELISA microplate reader (Spectramax i3x microplate reader with Softmax® Pro Software for Windows 10; Molecular Devices, San Jose, USA). Elastase inhibition by the extracts was assessed using a modified spectrophotometric method based on Kraunsoe et al. (1996) and Lee et al. (2009). Collagenase inhibition was evaluated using the modified spectrophotometric method by Barrantes and Guinea 2003 [67], which was originally developed by Wart and Steinbrink (1981). The LOX inhibitory activities of the extracts were determined following the method of Chung et al. (2009), with minor modifications. XO inhibition was measured spectrophotometrically by monitoring the absorbance at 295 nm from uric acid formed during an enzymatic reaction. […]

**Q.** Which IC50 [1] does the source give for `Oc1ccc2c(c1)OCO2` [sesamol] here?
**A.** The IC50 was 51.8 µM.

**Q.** Which results are given for `O=c1cc(-c2ccc(O)c(O)c2)oc2cc(O)cc(O)c12` [luteolin]?
**A.** IC50 [2]: 49.8 µM; IC50 ([3]; flavonoids isolated from Blumea balsamifera L., read-out: XO inhibitory activity IC50): 2.38 ± 0.01 µM; IC50 ([3]; read-out: XO inhibition IC50): 0.96 µM; POP inhibition IC50 [4]: 0.17 ppm

**Q.** Which “Nitric oxide radical-scavenging IC50” value [5] does the source give for `O=C1O[C@H]([C@@H](O)CO)C(O)=C1O` [Vitamin C] here?
**A.** Its value is 25.28 ± 2.98 µg/mL.

**Q.** What about the “Nitric Oxide Radical-Scavenging Activity (% Inhibition ± S.D.), reference” value ([5]; Vitamin C (1 mg/mL)) of the same compound?
**A.** Its value is 92.72 ± 0.10%.

**Q.** With tannic acid as the compound, how does the “Hyaluronidase inhibition IC50” value [6] read?
**A.** The value was 2.31 ± 0.73 µg/mL.

**Q.** What about the “Hyaluronidase Enzyme Inhibition (% Inhibition ± S.D.), reference” value ([6]; References (1 mg/mL)) of the same compound?
**A.** Its value is 92.51 ± 3.53%.

**Q.** With `COc1ccc2cc3[n+](cc2c1OC)CCc1cc2c(cc1-3)OCO2` [berberine] as the compound, how does the IC50 ([4]; read-out: POP inhibition IC50) read?
**A.** The IC50 was 142 ± 21.5 µM.

**Q.** With `Oc1ncnc2[nH]ncc12` [allopurinol, reference compound] as the compound, how does the inhibition at 25 µg/mL ([2]; read-out: XO Enzyme Inhibition (% Inhibition ± S.D.)) read?
**A.** The inhibition at 25 µg/mL was 91.6 ± 1.3%.

**Q.** What about the inhibition at 500 µg/mL ([2]; read-out: XO Enzyme Inhibition (% Inhibition ± S.D.), reference) of the same compound?
**A.** The inhibition at 500 µg/mL was 91.6 ± 1.3%.

**Q.** And the IC50 ([3]; read-out: XO inhibition IC50)?
**A.** Its IC50 is 4.05 µM.

**Q.** What does the source list for `O=C1C[C@@H](c2ccc(O)cc2)Oc2cc(O)cc(O)c21` [naringenin]?
**A.** IC50 [2]: 130 µM; inhibitory activity against XO (in words) [3]: moderate inhibitory activity; IC50 ([3]; read-out: XO inhibition IC50): 4.57 µM; inhibitory activity against the POP enzyme (in words) [4]: did not exhibit inhibitory activity

**Q.** With `O=c1c(O)c(-c2ccc(O)c(O)c2)oc2cc(O)cc(O)c12` [quercetin] as the compound, how does the “NO radical-scavenging activity IC50” value [7] read?
**A.** Its value is 160 ± 10 µg/mL.

**Q.** With `c1cnc2c(c1)ccc1cccnc12` [1,10-phenanthroline] as the compound, how does the “Collagenase inhibition IC50” value [8] read?
**A.** The value was 27.95 ± 0.3 µg/mL.

**Q.** And the “Collagenase Enzyme Inhibition (% Inhibition ± S.D.), reference” value ([8]; References (1 mg/mL))?
**A.** The value was 87.39 ± 2.85%.

**Q.** Which IC50 [2] does the source give for `O=c1cc(-c2ccc(O)cc2)oc2cc(O)cc(O)c12` [apigenin] here?
**A.** Its IC50 is 40.1 µM.

**Q.** And the IC50 ([3]; competitive inhibitor, read-out: XO inhibition IC50)?
**A.** Its IC50 is 3.57 µM.
